From patent US10206388B2, “Formulation component” (SYNGENTA LIMITED, priority 2011, dated 2019) come the findings set out here.

Molecules are shown by their SMILES.

What all share (type): in vivo
In assay [1] the test system is Xanthium strumarium (XANST). The assay is described as follows: Glasshouse weed test, fomesafen with adjuvants. As to conditions: Table 8, Example 6: fomesafen 60 or 120 g/ha; adjuvant 0.2% v/v; mean over two rates, three replicates, 7, 14 and 20 days. The method, then:
(§1) The aromatic ester Finsolv® TN (C12-C15 alkyl benzoate) was tested in a glasshouse against four weed species using the herbicide fomesafen. An agrochemical composition was prepared containing 0.2% v/v of the adjuvant in a track sprayer and was applied at a volume of 200 liters per hectare. Fomesafen was applied at either 60 or 120 grams of pesticide per hectare on each of the weed species. The weed species and their growth stage at spraying were Chenopodium album (CHEAL; growth stage 14), Abutilon theophrasti (ABUTH; growth stage 12), Setaria viridis (SETVI; growth stage 13), and Xanthium strumarium (XANST; growth stage 12).
(§2) Each spray test was replicated three times. The efficacy of the herbicide was assessed visually and expressed as a percentage of the leaf area killed. Samples were assessed at time periods of 7, 14 and 20 days following application. The results shown in Table 8 below are mean averages over the two rates of fomesafen, three replicates and the three assessment timings, and are compared to the efficacy of fomesafen in the absence of an adjuvant, and fomesafen in the presence of the commercially available adjuvant Turbocharge®.

Assay [2] deals with Setaria viridis (SETVI). Description: Glasshouse weed test, fomesafen with adjuvants. As to conditions: Table 8, Example 6: fomesafen 60 or 120 g/ha; adjuvant 0.2% v/v; mean over two rates, three replicates, 7, 14 and 20 days. As to the method: as §1, §2
For assay [3], the system named is Abutilon theophrasti (ABUTH). The assay is described as follows: Glasshouse weed test, fomesafen with adjuvants. The conditions noted are these: Table 8, Example 6: fomesafen 60 or 120 g/ha; adjuvant 0.2% v/v; mean over two rates, three replicates, 7, 14 and 20 days. The method, then: as §1, §2
The test system of assay [4] is Chenopodium album (CHEAL). Description: Glasshouse weed test, fomesafen with adjuvants. As to conditions: Table 8, Example 6: fomesafen 60 or 120 g/ha; adjuvant 0.2% v/v; mean over two rates, three replicates, 7, 14 and 20 days. As to the method: as §1, §2
Assay [5] relates to four weed species (CHEAL, ABUTH, SETVI, XANST). Description: Glasshouse weed test, fomesafen with adjuvants, mean across species. The conditions noted are these: adjuvant 0.2% v/v, mean over two rates. As to the method: as §1, §2
A second experiment was conducted to assess the efficacy of Finsolv® TN as an adjuvant in compositions of fomesafen. This was carried out as outlined above, with the following change: samples were assessed at 6, 14 and 20 days post application.
The results shown in Table 9 below are mean averages over the two rates of fomesafen, three replicates, three assessment timings, and four weed species and are compared to the efficacy of fomesafen in the absence of an adjuvant, and fomesafen in the presence of the commercially available tank-mix adjuvant, Turbocharge®.
An agrochemical composition was prepared containing 0.2% v/v of the adjuvant in a track sprayer and was applied at a volume of 200 liters per hectare. […]
Each spray test was replicated three times. The efficacy of the herbicide was assessed visually and expressed as a percentage of the leaf area killed. Samples were assessed at time periods of 7, 14 and 20 days following application. […]

The test system of assay [6] is four weed species (POLCO, BRAL, DIGSA, COMBE). The assay is described as above. The conditions noted are these: mean over two rates, three replicates, 14 and 21 days. The method, then:
An agrochemical composition was prepared containing 0.2% v/v of the adjuvant in a track sprayer and was applied at a volume of 200 liters per hectare. The adjuvant oils were emulsified using a small amount of the surfactant Pluronic® PE 10500, which was present in the composition at a concentration of 0.02% v/v. Fomesafen was applied at either 60 or 120 grams of pesticide per hectare on each of the weed species. The weed species and their growth stage at spraying were Polygonum convolvulus (POLCO; growth stage 13-14), Brachiaria plantaginea (BRAL; growth stage 13-14), Digitaria sanguinalis (DIGSA; growth stage 14), and Commelina benghalensis (COMBE; growth stage 13-14).
Each spray test was replicated three times. The efficacy of the herbicide was assessed visually and expressed as a percentage of the leaf area killed. Samples were assessed at time periods of 14 and 21 days following application. The results shown in Table 20 below are mean averages over the two rates of fomesafen, three replicates the two assessment timings, and the four weed species, and are compared to the efficacy of fomesafen in the absence of an adjuvant, and fomesafen in the presence of the commercially available adjuvant Turbocharge®.
An agrochemical composition was prepared containing either 0.2, 0.1, 0.05 or 0.025% v/v of the adjuvant in a track sprayer and was applied at a volume of 200 liters per hectare. The commercial adjuvant Turbocharge® was applied at 0.5% v/v. Fomesafen was applied at either 60 or 120 grams of pesticide per hectare on each of the weed species. The weed species and their growth stage at spraying were Polygonum convolvulus (POLCO; growth stage 13-14), Brachiaria plantaginea (BRAL; growth stage 12-13), Digitaria sanguinalis (DIGSA; growth stage 13), and Commelina benghalensis (COMBE; growth stage 12).
Each spray test was replicated three times. The efficacy of the herbicide was assessed visually and expressed as a percentage of the leaf area killed. Samples were assessed at time periods of 14 and 21 days following application. The results shown in Table 24 below are mean averages over the two rates of fomesafen, three replicates the two assessment timings, and the four weed species, and are compared to the efficacy of fomesafen in the absence of an adjuvant, and fomesafen in the presence of the commercially available adjuvant Turbocharge®. […]
Each spray test was replicated three times. The efficacy of the herbicide was assessed visually and expressed as a percentage of the leaf area killed. Samples were assessed at time periods of 14 and 21 days following application. […]

On to `CS(=O)(=O)NC(=O)c1cc(Oc2ccc(C(F)(F)F)cc2Cl)ccc1[N+](=O)[O-]` [Fomesafen, fomesafen], for which, in assay [1], the “Mean percentage kill XANST” value came out at 59.2 C %. In addition, in assay [2], the “Mean percentage kill SETVI” value turned out to be 10.3 B %. Also, the “Mean percentage kill ABUTH” value in assay [3] was found to be 19.7 C %. In addition, the “Mean percentage kill CHEAL” value in assay [4] stood at 34.7 C %. The “Mean percentage kill, Mean across species” value was determined as 31.0 C % in assay [5] (Table 8, Example 6: fomesafen 60 or 120 g/ha, three replicates, 7, 14 and 20 days); 44.9 B % in assay [5] (Table 9, Example 6 second experiment: fomesafen 60 or 120 g/ha, three replicates, 6, 14 and 20 days, four weed species); 37.7 C % in assay [5] (Table 15, Example 11: fomesafen 60 or 120 g/ha, three replicates, 7, 14 and 20 days, four weed species); 24.3D % in assay [6] (Table 20, Example 16: fomesafen 60 or 120 g/ha, adjuvant 0.2% v/v emulsified with Pluronic PE 10500 0.02% v/v); 17.8E % in assay [6] (Table 24, Example 20: absence of an adjuvant, fomesafen 60 or 120 g/ha); 32.8C % in assay [6] (Table 28, Example 25: fomesafen 60 or 120 g/ha, adjuvant 0.2% v/v). In addition, the “Mean percentage kill, Mean across species” value in assay [6] (Table 34, Example 34: fomesafen 60 or 120 g/ha, adjuvant 0.2% v/v) turned out to be 17.8B %.
